Earlier results as cited in US20090306944A1, “DEVICE AND METHOD FOR CALCULATING AND SUPPLYING A DRUG DOSE” (BAYER TECHNOLOGY SERVICES GMBH, priority 2006, published 2009).
Where two headings read alike, the source gives them in different places.

Experiments:
[1] = biological target: T1, CYP1A2 (Homo sapiens, UniProt P05177); settings: proportion of overall clearance, reference value in an adult
T1 sequence (P05177 1-516): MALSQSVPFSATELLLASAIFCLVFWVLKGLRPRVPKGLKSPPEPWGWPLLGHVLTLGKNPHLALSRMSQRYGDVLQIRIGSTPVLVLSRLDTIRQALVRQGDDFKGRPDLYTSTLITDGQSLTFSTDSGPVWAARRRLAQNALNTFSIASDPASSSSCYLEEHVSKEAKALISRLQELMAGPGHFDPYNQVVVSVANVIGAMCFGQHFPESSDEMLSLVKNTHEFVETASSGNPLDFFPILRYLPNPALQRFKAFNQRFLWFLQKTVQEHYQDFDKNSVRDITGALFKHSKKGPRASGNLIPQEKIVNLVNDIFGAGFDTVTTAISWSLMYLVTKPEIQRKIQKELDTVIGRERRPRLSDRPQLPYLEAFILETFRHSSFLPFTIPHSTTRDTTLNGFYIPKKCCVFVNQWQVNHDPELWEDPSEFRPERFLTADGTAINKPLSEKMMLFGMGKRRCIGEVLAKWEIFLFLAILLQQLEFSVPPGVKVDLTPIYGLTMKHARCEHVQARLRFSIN

[2] = biological target: CYP2E1 (Homo sapiens, UniProt P05181); settings: proportion of overall clearance, reference value in an adult
CYP2E1, sequence (P05181 whole entry): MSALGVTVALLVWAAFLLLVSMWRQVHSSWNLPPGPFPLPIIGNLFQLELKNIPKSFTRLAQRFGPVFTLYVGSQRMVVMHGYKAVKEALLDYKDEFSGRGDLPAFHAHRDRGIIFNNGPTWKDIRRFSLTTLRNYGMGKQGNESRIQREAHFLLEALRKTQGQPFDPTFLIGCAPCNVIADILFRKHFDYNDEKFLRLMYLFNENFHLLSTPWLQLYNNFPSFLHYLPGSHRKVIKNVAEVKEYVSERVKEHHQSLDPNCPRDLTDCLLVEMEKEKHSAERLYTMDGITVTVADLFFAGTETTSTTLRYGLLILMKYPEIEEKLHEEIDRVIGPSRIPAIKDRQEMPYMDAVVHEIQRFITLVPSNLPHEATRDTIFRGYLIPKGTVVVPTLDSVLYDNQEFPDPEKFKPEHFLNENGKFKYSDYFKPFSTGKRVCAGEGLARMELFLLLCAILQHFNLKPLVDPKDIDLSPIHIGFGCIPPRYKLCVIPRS

[3] = for main binding protein in the plasma: adult
[4] = intravenously administered
[5] = proportion of overall clearance, reference value in an adult
[6] = biological target: UGT1A1 (Homo sapiens, UniProt P22309); settings: proportion of overall clearance, reference value in an adult
UGT1A1, sequence (P22309 26-533): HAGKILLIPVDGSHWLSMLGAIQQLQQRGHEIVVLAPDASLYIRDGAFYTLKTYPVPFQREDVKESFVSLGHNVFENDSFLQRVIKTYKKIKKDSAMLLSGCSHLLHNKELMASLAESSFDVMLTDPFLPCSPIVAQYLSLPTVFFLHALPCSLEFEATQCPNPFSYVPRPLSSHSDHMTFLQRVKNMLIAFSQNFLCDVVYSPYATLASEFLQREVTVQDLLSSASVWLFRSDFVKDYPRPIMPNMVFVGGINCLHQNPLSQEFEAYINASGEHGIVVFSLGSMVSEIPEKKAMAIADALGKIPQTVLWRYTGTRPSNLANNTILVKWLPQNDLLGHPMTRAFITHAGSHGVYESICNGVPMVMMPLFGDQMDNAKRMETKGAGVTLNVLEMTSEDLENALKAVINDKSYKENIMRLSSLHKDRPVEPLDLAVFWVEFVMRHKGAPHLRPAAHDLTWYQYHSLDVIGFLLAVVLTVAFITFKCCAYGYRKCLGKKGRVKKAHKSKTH

[7] = biological target: T2, UGT2B7 (Homo sapiens, UniProt P16662); settings: proportion of overall clearance, reference value in an adult
T2 sequence (P16662 24-529): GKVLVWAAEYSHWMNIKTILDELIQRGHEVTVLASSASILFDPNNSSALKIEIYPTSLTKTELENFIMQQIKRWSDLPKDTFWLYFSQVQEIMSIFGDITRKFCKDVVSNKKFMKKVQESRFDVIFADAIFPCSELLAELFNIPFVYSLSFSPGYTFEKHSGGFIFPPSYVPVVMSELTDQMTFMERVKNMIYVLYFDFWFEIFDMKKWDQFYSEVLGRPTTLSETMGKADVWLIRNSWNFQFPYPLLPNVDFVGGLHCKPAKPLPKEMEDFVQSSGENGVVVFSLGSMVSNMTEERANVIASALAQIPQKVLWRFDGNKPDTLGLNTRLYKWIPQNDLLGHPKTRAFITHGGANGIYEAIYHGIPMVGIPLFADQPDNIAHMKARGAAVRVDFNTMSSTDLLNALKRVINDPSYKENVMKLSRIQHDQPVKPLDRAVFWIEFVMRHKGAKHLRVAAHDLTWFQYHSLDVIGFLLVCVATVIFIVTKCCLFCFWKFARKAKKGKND

[8] = tested on: CYP3A; settings: in vivo
[9] = biological target: T3, CYP3A4 (Homo sapiens, UniProt P08684); settings: proportion of overall clearance, reference value in an adult
T3 construct: the metabolizing enzymes in the liver; host or cells: liver enzymes of the adult, in vivo clearance
T3 sequence (P08684 whole entry): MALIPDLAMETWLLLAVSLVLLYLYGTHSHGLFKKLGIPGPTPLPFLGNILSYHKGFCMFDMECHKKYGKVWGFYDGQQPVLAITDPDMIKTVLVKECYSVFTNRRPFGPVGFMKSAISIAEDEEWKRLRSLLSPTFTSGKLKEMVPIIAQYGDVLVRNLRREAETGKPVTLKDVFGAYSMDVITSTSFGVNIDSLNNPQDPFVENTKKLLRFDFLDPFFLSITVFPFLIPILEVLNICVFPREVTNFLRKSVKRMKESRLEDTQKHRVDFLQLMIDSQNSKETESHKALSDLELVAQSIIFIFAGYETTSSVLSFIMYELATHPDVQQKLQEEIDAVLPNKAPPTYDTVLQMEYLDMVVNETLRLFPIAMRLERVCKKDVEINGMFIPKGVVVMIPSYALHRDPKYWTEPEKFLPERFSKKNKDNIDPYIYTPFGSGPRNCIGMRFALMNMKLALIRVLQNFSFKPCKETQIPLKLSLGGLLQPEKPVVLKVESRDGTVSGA

[10] = Measured
[11] = proportion of overall clearance, reference value in an adult
[12] = with co-medication with cyclosporin

## Cn1c(=O)c2c(ncn2C)n(C)c1=O [Caffeine]
[1]
  Excretion process: CYP1A2: CYP1A2 (85%),
[2]
  Excretion process: CYP2E1: CPY2E1 (13%),
[3]; reference value in an adult
  Free fraction in the plasma: 70% (albumin)

## O=C(O)c1cn(C2CC2)c2cc(N3CCNCC3)c(F)cc2c1=O [Ciprofloxacin]
[4]
  fraction renally excreted without being changed: Approximately ⅔

## CN[C@@H]1[C@@H](O)[C@@H](O[C@@H]2[C@@H](O)[C@H](O[C@H]3O[C@H](CN)[C@@H](O)[C@H](O)[C@H]3O)[C@@H](N)C[C@H]2NC(=O)[C@@H](O)CN)OC[C@]1(C)O [Isepamicin]
[11]
  Excretion process: Renal: Renal (100%)
[3]; reference value in an adult
  Free fraction in the plasma: 95%

## C[C@H]1COc2c(N3CCN(C)CC3)c(F)cc3c(=O)c(C(=O)O)cn1c23 [Levofloxacin]
In vivo
  Excretion process: Renal: Renal (80%)
[5]
  Excretion process: Billiary: Billiary (10%)
[6]
  Excretion process: UGT1A1: UGT1A1 (10%)
[3]; reference value in an adult
  Free fraction in the plasma: 70% (Albumin)

## O=C1Nc2ccc(Cl)cc2C(c2ccccc2Cl)=NC1O (stereo not drawn) [Lorazepam]
[7]
  Excretion process: UGT2B7: UGT2B7 (100%)
[3]; plasma
  Free fraction in the plasma: 8% (Albumin)

## Cc1ncc2n1-c1ccc(Cl)cc1C(c1ccccc1F)=NC2 [Midazolam]
[8]
  Excretion process: CYP3A: CYP3A (100%)
[3]; plasma
  Free fraction in the plasma: 2% (Albumin)

## CC(=O)Nc1ccc(O)cc1 [Paracetamol]
[3]
  main binding protein in the plasma: Albumin
[3]; reference value in an adult
  Free fraction in the plasma: 95%

## CCCN1CCCC[C@H]1C(=O)Nc1c(C)cccc1C [Ropivacaine]
[1]
  Excretion process: CYP1A2: CYP1A2 (90%),
[9]
  Excretion process: CYP3A4: CYP3A4 (9%),
[11]
  Excretion process: Renal: Renal (1%)
[3]
  main binding protein in the plasma: α1-Glycoprotein
[3]; reference value in an adult
  Free fraction in the plasma: 5%

## Cn1c(=O)c2[nH]cnc2n(C)c1=O [Theophylline]
[1]
  Excretion process: CYP1A2: CYP1A2 (60%),
[11]
  Excretion process: Renal: Renal (15%)
[2]
  Excretion process: CYP2E1: CYP2E1 (25%),

## CC(=O)O[C@H]1C(=O)[C@@]2(C)[C@H]([C@H](OC(=O)c3ccccc3)[C@]3(O)C[C@H](OC(=O)[C@H](O)[C@@H](NC(=O)c4ccccc4)c4ccccc4)C(C)=C1C3(C)C)[C@]1(OC(C)=O)CO[C@@H]1C[C@@H]2O [paclitaxel, Paclitaxel]
[10]; [12]
  AUC: 1.7 ± 0.9 µM·h
  Cmax: 200 ± 100 nM
  T > 0.1 μM: 3.7 ± 2.3 h
  T > 0.5 μM: 7.4 ± 4.4 h
[10]; without co-medication
  AUC: 0.2 ± 0.1 µM·h
  T > 0.1 μM: 0 h
  T > 0.5 μM: 1.2 ± 0.9 h
[10]; without co-medication, rounded-up value
  Cmax: 100 nM

## Gentamicin
[3]; plasma
  Free fraction in the plasma: 95%
